These results are taken from DBAASP.

Structures are written as SMILES. Converted amounts (≈) assume the structure as drawn.

Among the test systems are Acinetobacter baumannii; Escherichia coli UB1005; Candida albicans.
Common to all, as to assay: ≥ marks a high value that may be exact or a test limit, other limits are often not marked, values filed in µg/mL are converted to µM
Assay [1] relates to Escherichia coli ATCC 11219.
Assay [2] concerns Klebsiella pneumoniae ATCC 10031.
In assay [3] the test system is Pseudomonas aeruginosa ATCC 13388.
The test system of assay [4] is Salmonella enterica subsp. enterica serovar Typhimurium ATCC 14028.
Assay [5] relates to Staphylococcus aureus ATCC 6538.
For assay [6], the system named is Proteus vulgaris KCTC 2433.
Assay [7] deals with Salmonella typhimurium KCTC 1926.
The test system of assay [8] is Candida albicans TIMM 1768.
Assay [9] relates to Staphylococcus aureus KCTC 1621.
The test system of assay [10] is Trichosporon beigelii KCTC 7707.
The subject of assay [11] is Saccharomyces cerevisiae KCTC 7296.
In assay [12] the test system is Bacillus subtilis KCTC 1918.
In assay [13] the test system is Acinetobacter baumannii KCTC 2508.
Assay [14] concerns Staphylococcus aureus RN4220.
The test system of assay [15] is Cronobacter sakazakii ATCC BAA-894.
Assay [16] deals with Staphylococcus aureus SA113.
The test system of assay [17] is Staphylococcus aureus RF122.
In assay [18] the test system is Cronobacter muytjensii ATCC 51329.
Assay [19] relates to Salmonella enterica subsp. enterica serovar Typhimurium LT2.
Assay [20] concerns Pseudomonas fluorescens NCIMB 9046.
The test system of assay [21] is Cronobacter sakazakii DSM 4485.
Assay [22] has as its system Cronobacter sakazakii DPC 6440.
Assay [23] concerns Staphylococcus aureus NCTC 8325-4.
Assay [24] deals with Staphylococcus aureus Newman.
Assay [25] concerns Escherichia coli NCIMB 11843.
Assay [26] concerns Klebsiella pneumoniae NCIMB 13218.
In assay [27] the test system is Pseudomonas aeruginosa H103.
In assay [28] the test system is Salmonella enterica serovar Typhimurium.
The subject of assay [29] is Staphylococcus aureus ATCC 25923.
Assay [30] deals with Enterococcus faecalis ATCC 29212.
Assay [31] relates to Staphylococcus epidermidis.

The term MIC denotes the lowest concentration that inhibits growth of the organism. On to `CC[C@H](C)[C@H](NC(=O)[C@H](C)N)C(=O)N[C@@H](Cc1cnc[nH]1)C(=O)N[C@@H](CC(=O)O)C(=O)N[C@H](C(=O)N[C@@H](CC(C)C)C(=O)N[C@@H](CCCCN)C(=O)N[C@@H](Cc1ccc(O)cc1)C(=O)NCC(=O)N[C@@H](CCCCN)C(=O)N1CCC[C@H]1C(=O)N[C@@H](CO)C(N)=O)[C@@H](C)CC` [AIHDILKYGKPS], for which the MIC in assay [1] was at least 50 µM; in assay [2], at least 50 µM; in assay [3], 10 µM (≈ 13.4 µg/mL); in assay [4], 3 µM (≈ 4.02 µg/mL); in assay [5], 10 µM (≈ 13.4 µg/mL).
On to `CC[C@H](C)[C@H](NC(=O)CNC(=O)[C@H](CC(C)C)NC(=O)[C@H](CCCN=C(N)N)NC(=O)[C@H](CCCCN)NC(=O)[C@H](Cc1ccccc1)NC(=O)[C@@H](NC(=O)[C@H](CCCCN)NC(=O)[C@H](CCCCN)NC(=O)[C@H](C)N)C(C)C)C(=O)NCC(=O)N[C@@H](C)C(=O)N[C@H](C(=O)N[C@@H](CC(C)C)C(=O)N[C@@H](CCCCN)C(=O)N[C@H](C(=O)N[C@@H](CC(C)C)C(=O)N[C@H](C(=O)N[C@H](C(=O)NCC(=O)O)[C@@H](C)O)[C@@H](C)O)C(C)C)C(C)C` [AKKVFKRLGIGAVLKVLTTG], for which the MIC in assay [6] amounted to 6.25 µM (≈ 13.1 µg/mL); in [7], 0.39 µM (≈ 0.819 µg/mL); in the assay on Acinetobacter baumannii, 6.25 µM (≈ 13.1 µg/mL); in assay [8], 12.5 µM (≈ 26.2 µg/mL); in assay [9] it was 1.56 µM (≈ 3.28 µg/mL); in assay [10], 17.7 µM (≈ 37.1 µg/mL). For the same compound, the MIC is 12.5 µM (≈ 26.2 µg/mL) in [11], 0.78 µM (≈ 1.64 µg/mL) in [12] and 6.25 µM (≈ 13.1 µg/mL) in assay [13].
In the case of `CC[C@H](C)[C@H](NC(=O)CNC(=O)[C@H](CC(C)C)NC(=O)[C@H](CCCN=C(N)N)NC(=O)[C@H](CCCCN)NC(=O)[C@H](Cc1ccccc1)NC(=O)[C@@H](NC(=O)[C@H](CCCCN)NC(=O)[C@H](CCCCN)NC(=O)[C@H](C)N)C(C)C)C(=O)NCC(=O)N[C@@H](C)C(=O)N[C@H](C(=O)N[C@@H](CC(C)C)C(=O)N[C@@H](Cc1c[nH]c2ccccc12)C(=O)N[C@H](C(=O)N[C@@H](CC(C)C)C(=O)N[C@H](C(=O)N[C@@H](Cc1c[nH]c2ccccc12)C(=O)NCC(=O)O)[C@@H](C)O)C(C)C)C(C)C` [AKKVFKRLGIGAVLWVLTWG], the MIC in [6] was 3.12 µM (≈ 7 µg/mL); in [7], 0.78 µM (≈ 1.75 µg/mL); in [8] it was at least 50 µM; in assay [9] it was 3.12 µM (≈ 7 µg/mL); in assay [10], at least 50 µM; in [11], at least 50 µM. For the same compound, the minimum inhibitory concentration (MIC) in assay [12] was determined as 6.25 µM (≈ 14 µg/mL).
On to `CC[C@H](C)[C@H](NC(=O)CN)C(=O)N[C@@H](Cc1cnc[nH]1)C(=O)N[C@@H](CC(=O)O)C(=O)N[C@H](C(=O)N[C@@H](CC(C)C)C(=O)N[C@@H](CCCCN)C(=O)N[C@@H](C)C(=O)NCC(=O)N[C@@H](CCCCN)C(=O)N1CCC[C@H]1C(=O)N[C@@H](CO)C(N)=O)[C@@H](C)CC` [GIHDILKAGKPS], for which the MIC was 20 µM (≈ 24.7 µg/mL) in assay [1]; 20 µM (≈ 24.7 µg/mL) in [2]; at least 50 µM in [3]; above 50 µM in assay [4]; 10 µM (≈ 12.3 µg/mL) in [5].
Turning to `CC[C@H](C)[C@H](NC(=O)CN)C(=O)N[C@@H](CCCN=C(N)N)C(=O)N[C@@H](CCCN=C(N)N)C(=O)N[C@H](C(=O)N[C@@H](CC(C)C)C(=O)N[C@@H](CCCN=C(N)N)C(=O)N[C@@H](Cc1ccc(O)cc1)C(=O)NCC(=O)N[C@@H](CCCN=C(N)N)C(=O)N1CCC[C@H]1C(=O)N[C@@H](CO)C(N)=O)[C@@H](C)CC` [GIRRILRYGRPS], the MIC in [1] was 4 µM (≈ 5.77 µg/mL); in assay [2], 10 µM (≈ 14.4 µg/mL); in assay [3], 10 µM (≈ 14.4 µg/mL); in assay [4], 10 µM (≈ 14.4 µg/mL); in [5], 5 µM (≈ 7.21 µg/mL).
With `CC[C@H](C)[C@H](N)C(=O)N[C@@H](C)C(=O)N[C@@H](C)C(=O)N[C@@H](C)C(=O)NCC(=O)N[C@@H](CC(C)C)C(=O)N1CCC[C@H]1C(=O)N[C@@H](CCC(N)=O)C(=O)N[C@@H](CCC(=O)O)C(=O)O` [IAAAGLPQE], the MIC in [14] is at least 312 µM; in assay [15], at least 1250 µM; in [16] it was at least 1250 µM; in assay [17] it was at least 312 µM; in assay [18], at least 1250 µM; in assay [19], at least 2500 µM. Further, the MIC in assay [20] was at least 2500 µM; in assay [21] it was at least 1250 µM; in [22], at least 625 µM; in assay [23], at least 1250 µM; in assay [24], at least 1250 µM; in [25] it was at least 2500 µM. For the same compound, in assay [26], the MIC is at least 1250 µM.
Turning to `CC[C@H](C)[C@H](N)C(=O)N[C@@H](Cc1cnc[nH]1)C(=O)N[C@@H](CCC(N)=O)C(=O)NCC(=O)N[C@@H](CC(C)C)C(=O)N1CCC[C@H]1C(=O)N[C@@H](CCC(N)=O)C(=O)N[C@@H](CCC(=O)O)C(=O)O` [IHQGLPQE], the MIC was at least 1250 µM in [14]; at least 2500 µM in assay [15]; at least 2500 µM in [16]; at least 1250 µM in assay [17]; at least 2500 µM in assay [18]; at least 2500 µM in assay [19]. The MIC in [20], in assay [21], in assay [22], in assay [23], in assay [24] and in [25] was at least 2500 µM in each case. Moreover, the MIC in [26] is at least 2500 µM.
Turning to `CC[C@H](C)[C@H](N)C(=O)N[C@@H](CC(C)C)C(=O)N1CCC[C@H]1C(=O)N[C@@H](Cc1c[nH]c2ccccc12)C(=O)N[C@@H](CCCCN)C(=O)N[C@@H](Cc1c[nH]c2ccccc12)C(=O)N[C@@H](CCCN=C(N)N)C(=O)N[C@@H](Cc1c[nH]c2ccccc12)C(=O)N[C@@H](Cc1c[nH]c2ccccc12)C(=O)N[C@@H](CCCCN)C(=O)N[C@@H](Cc1c[nH]c2ccccc12)C(=O)N[C@@H](CCCN=C(N)N)C(=O)N[C@@H](CCCN=C(N)N)C(=O)O` [ILPWKWRWWKWRR], the MIC amounted to 5.7 µM (≈ 11.4 µg/mL) in assay [27]; 1.4 µM (≈ 2.8 µg/mL) in the assay on Escherichia coli UB1005; 5.7 µM (≈ 11.4 µg/mL) in [28]; 0.7 µM (≈ 1.4 µg/mL) in assay [29]; 2.9 µM (≈ 5.79 µg/mL) against Candida albicans; 2.9 µM (≈ 5.79 µg/mL) in [30]. In addition, the MIC in assay [31] amounted to 0.7 µM (≈ 1.4 µg/mL).
Regarding `CC[C@H](C)[C@H](NC(=O)[C@H](CCCCN)NC(=O)[C@@H](NC(=O)[C@@H](NC(=O)[C@H](CCCN=C(N)N)NC(=O)[C@H](C)NC(=O)[C@H](CC(C)C)NC(=O)[C@@H](N)CCCN=C(N)N)[C@@H](C)CC)C(C)C)C(=O)N[C@@H](CCCN=C(N)N)C(=O)N[C@H](C(=O)N[C@@H](C)C(=O)N[C@@H](CCCN=C(N)N)C(N)=O)C(C)C` [RLARIVKIRVAR], the MIC in assay [27] is 21.4 µM (≈ 31 µg/mL); with Escherichia coli UB1005 it was 11 µM (≈ 16 µg/mL); in assay [28] it was at least 43.4 µM; in assay [29], 86.2 µM (≈ 125 µg/mL); with Candida albicans, 21.4 µM (≈ 31 µg/mL); in [30], 86.2 µM (≈ 125 µg/mL). This compound displayed an MIC in assay [31] of 21.4 µM (≈ 31 µg/mL).
